The results in this text go back to ChEMBL document CHEMBL1140514, “Some new acyclic nucleotide analogues as antiviral prodrugs: synthesis and bioactivities in vitro” (Bioorg Med Chem Lett, 2007).

One data set has as its system Hepatitis B virus. Kind of data set: Antiviral activity against Hepatitis B virus infected human HepG2 cells after 9 days by MTT assay. Format: functional, organism-based. To be noted: HepG2, 216 h.
Data set [1] in a line: Therapeutic index, Ratio of TC50 for human HepG2 cells to IC50 for HBV-infected human HepG2 cells. In kind it is cell-based. To be noted: HepG2 cells (TC50) and HBV-infected HepG2 cells (IC50).
Data set [2] concerns Human immunodeficiency virus 1. Kind of data set: Antiviral activity against HIV1 3B in MT4 cells after 4 days by MTT assay. Format: functional.
The next data set deals with HepG2. Kind of data set: Cytotoxicity against human HepG2 cells after 9 days by MTT assay. Format: functional, cell-based. To be noted: HepG2, 216 h.
Data set [3] is described as follows: Cytotoxicity against MT4 cells at 10 ug/ml after 4 days by MTT assay. Format: cell-based. Particulars: human, read-out: Inhibition.

`Nc1ncnc2c1ncn2CCOCP(=O)(OCOC(=O)OC1CCCCC1)OCOC(=O)OC1CCCCC1.O=C(O)/C=C/C(=O)O`: the IC50 with Hepatitis B virus turned out to be 5.33 µM; in the data set on HepG2, 23.1 µM. For the same compound, the selectivity ratio in data set [1] came out at 11.9. In addition, the TC50 in data set [2] is 63.2 µM.

Consider `Nc1ncnc2c1ncn2CCOCP(=O)(OCOC(=O)OCc1ccccc1)OCOC(=O)OCc1ccccc1.O=C(O)/C=C/C(=O)O`, for which the cytotoxicity at 96 h, 10 ug/ml in data set [3] came out at 24.9%. Further, the results for the IC50 with Hepatitis B virus and in the data set with HepG2 were 2.15 µM and > 30 µM, respectively. Moreover, the selectivity ratio in data set [1] is 12.3. Further, the TC50 in data set [2] was determined as 26.5 µM.

`Nc1ncnc2c1ncn2CCOCP(=O)(O)O` [ADEFOVIR] displayed an IC50 with Hepatitis B virus of 42.1 µM.

As to `C=CCOC(=O)OCOP(=O)(O)COCCn1cnc2c(N)ncnc21.O=C(O)/C=C/C(=O)O`, the IC50 in the data set with Hepatitis B virus turned out to be 10.6 µM; in the data set with HepG2 it was 23.7 µM. Moreover, the TC50 in data set [2] is listed as 0.67 10^3uM.

The compound `C[C@H](Cn1cnc2c(N)ncnc21)OCP(=O)(O)O` [TENOFOVIR ANHYDROUS] showed an IC50 in the data set with Hepatitis B virus of 12.3 µM. Also, the selectivity ratio in data set [1] was found to be 31.4. The TC50 in data set [2] is recorded as 0.39 10^3uM.

As to `C[C@H](Cn1cnc2c(N)ncnc21)OCP(=O)(OCOC(=O)OC1CCCC1)OCOC(=O)OC1CCCC1.O=C(O)/C=C/C(=O)O`, the cytotoxicity at 96 h, 10 ug/ml in data set [3] is 25.5%. The IC50 with Hepatitis B virus was 7.2 µM; with HepG2 it was > 30 µM. This compound yielded a TC50 in data set [2] of 80.2 µM.

On to `C[C@H](Cn1cnc2c(N)ncnc21)OCP(=O)(OCOC(=O)OC1CCCCC1)OCOC(=O)OC1CCCCC1.O=C(O)/C=C/C(=O)O`, for which the results for the IC50 with Hepatitis B virus and with HepG2 were 5.94 µM and 17.5 µM, respectively. Further, the selectivity ratio in data set [1] amounted to 15.6. This compound came in with a TC50 in data set [2] of 92.8 µM.

In the case of `Nc1ncnc2c1ncn2CCOCP(=O)(OCOC(=O)OC1CCCC1)OCOC(=O)OC1CCCC1.O=C(O)/C=C/C(=O)O`, the IC50 in the data set on Hepatitis B virus amounted to 2.46 µM; with HepG2, 3.51 µM. In data set [2], this compound returned a TC50 of 22.1 µM.

Regarding `Nc1ncnc2c1ncn2CCOCP(=O)(O)OCOC(=O)OCc1ccccc1.O=C(O)/C=C/C(=O)O`, the cytotoxicity at 96 h, 10 ug/ml in data set [3] amounted to 9%. Also, the IC50 in the data set on Hepatitis B virus is 43 µM; with HepG2, > 30 µM. Moreover, the selectivity ratio in data set [1] came to 13.7. The TC50 in data set [2] is 0.59 10^3uM.

Regarding `C=CCOC(=O)OCOP(=O)(CO[C@H](C)Cn1cnc2c(N)ncnc21)OCOC(=O)OCC=C.O=C(O)/C=C/C(=O)O`, the IC50 in the data set on Hepatitis B virus was 7.98 µM; in the data set on HepG2, 1.61 µM. In data set [2], this compound came in with a TC50 of 30.9 µM.

In the data set on HepG2, `Nc1nc(=O)n([C@@H]2CS[C@H](CO)O2)cc1F` [EMTRICITABINE] came in with a concentration for half-maximal inhibition (IC50) of 27.7 µM.

Turning to `CC(C)OC(=O)OCOP(=O)(CO[C@H](C)Cn1cnc2c(N)ncnc21)OCOC(=O)OC(C)C.O=C(O)/C=C/C(=O)O` [TENOFOVIR DISOPROXIL FUMARATE], the IC50 in the data set on Hepatitis B virus is 5.1 µM; in the data set on HepG2, 2.31 µM. Moreover, the selectivity ratio in data set [1] is 10.8. In addition, the TC50 in data set [2] was 55.2 µM.

Turning to `C=CCOC(=O)OCOP(=O)(COCCn1cnc2c(N)ncnc21)OCOC(=O)OCC=C.O=C(O)/C=C/C(=O)O`, in data set [3], the cytotoxicity at 96 h, 10 ug/ml was 22.8%. Moreover, the IC50 in the data set on Hepatitis B virus was 8.2 µM; with HepG2 it was > 30 µM. The compound also came in with a TC50 in data set [2] of 24.6 µM.

As to `C[C@H](Cn1cnc2c(N)ncnc21)OCP(=O)(OCOC(=O)OCc1ccccc1)OCOC(=O)OCc1ccccc1.O=C(O)/C=C/C(=O)O`, in data set [3], the cytotoxicity at 96 h, 10 ug/ml is 28.1%. In addition, the IC50 was 5.5 µM in the data set with Hepatitis B virus and > 30 µM in the data set with HepG2. Moreover, the selectivity ratio in data set [1] came out at 12.7. This compound also gave a TC50 in data set [2] of 70.1 µM.
